Measurements: a melting point compilation (Tetko et al.; mined from patent text by program, amines drawn as free bases though some values may be those of a salt)

Row | Compound | melting point [°C]
1 | N#CC(CCC1C2CCN1CC2)(c1ccccc1)c1ccccc1 (stereo not given) | 79 to 81
2 | C[C@@H]1S[C@@H](C(=O)Nc2ccc(CN3CCCCC3)cc2)Cc2cc3c(cc2C1=O)OCO3 | 162 to 165
3 | CS(=O)(=O)OCC1CC(=O)N(c2ccc(-c3ccc(C#N)cc3)cc2)C1 (stereo not given) | 183 to 186
4 | CC1(C)Oc2ccc(OC(F)(F)F)cc2[C@@H](NC(=O)c2ccco2)[C@@H]1O (relative stereo) | 146 to 147
5 | O=CC1CC1(c1cccc(F)c1)c1cccc(F)c1 (stereo not given) | 49 to 51
6 | C[C@H]1CC(=O)O[C@@H]1CO | 104 to 105
7 | CC(C)CN(C)S(=O)(=O)c1cccc(-c2cc(-c3nc(-c4ccc(C(F)(F)F)cc4)cc(C(F)(F)F)n3)ccn2)c1 | 144
8 | CN(C)C1(c2ccccc2)CCC(c2[nH]c3ccccc3c2C2CC2)CC1 (stereo not given) | 238 to 245
9 | CSc1nc(C)c(Cc2cccnc2)c(=O)[nH]1 | 208 to 211
10 | Cc1cc(Sc2ccc(O)c(C)c2)ccc1O | 124
11 | CNc1cc(Cl)ccc1C(C)=O | 65 to 66
12 | O=c1ccc(C(F)(F)F)cn1Cc1ccc(NCCCN2CCCCC2)cc1 | 168 to 170
13 | O=C(Cl)C1CCCCC1 | 41 to 42
14 | CN1C(=O)CC[C@]2(C)c3ccc(-c4ccc5ncsc5c4)cc3CC[C@@H]12 | 183 to 187
15 | O=C1CCCCCCCCCCC(=O)OCCC1 | 33
16 | CC(=O)n1c(C(=O)O)cc2cc3c(cc21)OCO3 | 164 to 166
17 | O=C(Nc1ccc(-n2nc(C(F)(F)F)cc2C2CC2)cc1)c1cccc(F)c1F | 147 to 152
18 | CCCCCCCCCCCCCC=C(C(=O)O)c1ccc2c(c1)C(C)(C)CCC2(C)C | 59 to 60
19 | O=C1NC(=O)C(c2cc(F)cc(F)c2)(c2cc(F)cc(F)c2)N1 | 271 to 274
20 | O=CNc1ccccc1F | 47 to 48
21 | c1cc(-c2cc3nccnc3[nH]2)cc(C2OCCCO2)c1 | 205 to 206
22 | Cc1cc(S(=O)(=O)O)ccc1NC(=O)NN | 252 to 255
23 | OC(Cn1ccnc1)(c1ccc(Cl)cc1)C1(n2cnc(Cl)n2)CC1 (stereo not given) | 231
24 | CN(C)CCNC1=CC(=O)c2oc(-c3cc(F)ccc3F)nc2C1=O | 181 to 182

Row | Compound | melting point [°C]
25 | Nc1c(CO)cccc1[N+](=O)[O-] | 100
26 | Cc1nnc(-c2ccc3ncn(-c4ccc(OC(F)(F)F)cc4)c3c2)o1 | 160 to 161
27 | OC[C@H]1OC[C@@H](n2c(Br)nc3cc(Cl)c(Cl)cc32)[C@H](O)[C@@H]1O | 207 to 209
28 | CC(=O)N=c1[nH]c2ccccc2n1C1CCNCC1 | 164
29 | NCCSc1ncccc1C(N)=O | 131 to 133
30 | CN(C)c1ccc(NC(=O)N(C[C@H]2CC[C@H](CN(C(=O)Nc3ccc(N(C)C)cc3)C3CCCCCC3)CC2)C2CCCCCC2)cc1 | 159 to 164
31 | CC(=O)N1CCC(CCC(=O)c2ccc3c(c2)CCN3)CC1 | 145 to 146
32 | O=C1CC2(CN1)CC(=O)c1cc(F)ccc12 (stereo not given) | 198 to 202
33 | Cc1cc2cc(CN3CCCC3)cnc2cc1NC(=O)c1ccc(-c2ccc(C(F)(F)F)cc2)cc1 | 216 to 219
34 | O=C(c1cccc2[nH]ccc12)N1CCOCC1 | 127 to 129
35 | O=C(CCCCl)Nc1cn(-c2cccnc2)nc1Cl | 97 to 98
36 | CCCCn1c(Nc2cc(Cl)cc(C(F)(F)F)c2)nc(C(F)(F)F)cc1=O | 157 to 158
37 | C[C@@H](N)[C@](O)(Cn1cncn1)c1ccc(F)cc1F | 156 to 157
38 | CCOC12N=C(c3cccnc3)SC1Cc1cc(Cl)ccc12 (stereo not given) | 89 to 90
39 | COC1=CC(O)(SC(=O)N(C)C)C([N+](=O)[O-])C=C1 (stereo not given) | 101
40 | CCOP(=O)(Cc1nsc2ccc(-n3c(=O)cc(C(F)(F)F)n(C)c3=O)cc12)OCC | 142 to 144
41 | CCc1cn(C2OC(CN=[N+]=[N-])C(O)C2F)c(=O)[nH]c1=O (stereo not given) | 185 to 188
42 | CC(=O)NC12CC3(C)CC(C)(CC(CO)(C3)C1)C2 | 152 to 153
43 | Cc1cccc(N)c1[N+](=O)[O-] | 105 to 108
44 | CCCCCCCCC1(C#N)CCC(c2ccc(-c3ccc(CCCC)cc3)cc2)CC1 (stereo not given) | 52
45 | Cc1ccc(C)c2c1C(=O)N(c1ccc(F)cc1F)C2=O | 212
46 | OCc1csc(CN2CCCC2)c1 | 111 to 112
47 | O=C(NNC(=O)C(Cl)(Cl)Cl)c1cccc(Cl)c1 | 143 to 144
48 | CCCn1nnn(-c2cc(OC)c(C(F)(F)F)cc2Cl)c1=O | 82 to 83

Further lines, results first:

Row | melting point [°C] | Compound
49 | 248 | O=C(O)c1ccc(COCc2csc3nc(C(=O)O)[nH]c(=O)c23)cc1
50 | 173 | NNc1nccc(-c2ccc3c(ccn3-c3ccccn3)c2)c1Cl
51 | 208 to 210 | COC(=O)N1C(=O)NC(C)=C(C(=O)OC(C)C)C1c1cccc(Cl)c1Cl (stereo not given)
52 | 186 to 188 | OCC1(CO)COC(c2nc(-c3ccccc3)c(-c3ccccc3)n2Cc2ccccc2)OC1
53 | 85 to 86 | N#CC(CCCOc1ccccc1)(Cn1cncn1)c1ccccc1 (stereo not given)
54 | 199 to 200 | Nc1ncnc2c1c(-c1ccc(Oc3ccccc3)cc1)cn2C1CCC(O)CC1 (stereo not given)
55 | 79 to 84 | CCN1C(=O)C(C)(C)C(=O)N(C)c2cc(CN(CCn3ccc4oc(C)cc4c3=O)Cc3cccc(C=O)c3)ccc21
56 | 100 to 103 | O=C(c1ccc(OCCN2CCCCC2)cc1)c1c(-c2ccc(O)cc2)sc2ccccc12
57 | 101 to 102 | CS(=O)(=O)c1ccc2c(c1)c1c(n2Cc2ccc(Cl)cc2)C(CC(=O)O)CCC1 (stereo not given)
58 | 161 | C#Cc1cccc(-n2ncc3c(NCc4ccc5c(c4)OCCO5)ncnc32)c1
59 | 126 to 128 | Cc1c(-c2ccccc2)oc2c(C(=O)N(C)CCCl)cccc2c1=O
60 | 190 to 196 | Nc1nc(=O)n(CCCN2CCN(C(c3ccccc3)c3ccccc3)CC2)c2ccccc12
61 | 230 to 233 | N#Cc1cnc2c(sc3ccccc32)c1Nc1ccc(Oc2ccccc2)cc1
62 | 127 to 129 | COC(=O)C(=O)c1ccc(OCCOc2ccc3ccccc3c2)c([N+](=O)[O-])c1
63 | 241 to 242 | CC(C)c1cccc(C(C)C)c1NC(=O)C(Cc1ccccc1)NC(=O)NC(C)(C)C (stereo not given)
64 | 103 to 106 | NC(=O)CCN(CCC(N)=O)Cc1ccccc1
65 | 150 to 152 | NC(=O)c1cccc(-c2ccc(Oc3ccc(F)cc3)cc2)n1
66 | 191 to 193 | COCCCNC(=O)c1cnn(C)c1C(=O)Nc1ccn2nc(-c3ccccc3)nc2c1
67 | 42 to 45 | O=[N+]([O-])c1cc(Br)ccc1-c1ccccc1F
68 | 116 to 117 | C#CCN(C)c1nccc(Oc2ccc(NC(=O)c3cc(F)cc(N4CCCCC4)c3)c3ccccc23)n1
69 | 160 to 162 | COc1cc(OC)nc(NC(=O)NS(=O)(=O)c2ccccc2CCOC(C)=O)n1
70 | 187 to 188 | CS(=O)(=O)Nc1ccc(NC(=O)CCCc2ccc(N=C(N)c3cccs3)cc2)cc1
71 | 150 to 151 | CC(C)c1cccc(COCCCO)c1NC(=O)CC1c2ccccc2Oc2ccccc21
72 | 107 to 109 | COC(=O)[C@@H]1[C@H](/C=C/c2ccccc2)N1S(=O)c1ccc(C)cc1 (stereo not given in full)
73 | 75 | CCOC(=O)C(C)Oc1cc(C(=O)O)c(O)c2ccccc12 (stereo not given)
74 | 201 to 202 | CCOC(=O)CCC(=O)c1cnc2c(OC)cccc2c1NCc1ccccc1

Row | melting point [°C] | Compound
75 | 142 to 143 | Cc1ccccc1CN1CCN(C(=O)c2ccc(N(CCOC(C)C)C(=O)CCl)cc2)CC1
76 | 119 to 122 | CC(=O)Oc1ccc(C=C2CCCc3cc(C)cnc32)cc1
77 | 70 to 72 | CCOC(C)=NS(=O)(=O)c1nc(-c2ccccc2Cl)ns1
78 | 261 to 262 | CCCCc1nc2cc(Cl)cc(C(=O)O)c2n1Cc1ccccc1Cl
79 | 120 to 122 | Cc1ncc2c(n1)-c1ccc(Cl)cc1C(c1ccccc1)=NC2
80 | 166 to 167 | CCOC(=O)CCn1cnc2c1N=CNC2N (stereo not given)
81 | 115 to 116 | CC(C)(C)OC(=O)N[C@H]1CN(Cc2ccccc2)[C@@H]2CCO[C@H]12 (relative stereo)
82 | 126 to 128 | COc1ccc(-c2noc3cc(OC)ccc23)c(C)c1
83 | 111 to 113 | OCCc1nccn1CCCc1cccc(O)c1
84 | 205 to 207 | CN1CCN(c2cccc3ccc(Nc4ncccc4NC(=O)c4ccccc4)cc23)CC1
85 | 161 to 163 | CCOc1cc(NC(C)=O)c(Cl)cc1C(=O)NCC1CN(Cc2ccc(F)cc2)CCO1 (stereo not given)
86 | 126 | CCCc1c(CSc2ncccc2O)ccc(C(C)=O)c1O
87 | 183 to 184 | Cc1cc(Cc2nnc(Nc3ccc(Cl)cc3)c3ccccc23)ccn1
88 | 141 to 143 | O=C(N[C@H]1C[C@H](C(=O)O)Nc2cc(Cl)cc(Cl)c21)c1ccccc1Cl (relative stereo)
89 | 161 | CC(C)N(C(=O)c1cc2ccccc2c(-c2ccccc2Cl)n1)C(C)C
90 | 144 to 148 | COC(=O)C1=C(C)NC(C)=C(C(=O)OCOC(C)=O)C1c1cccc(Cl)c1Cl (stereo not given)
91 | 118 to 121 | Cn1nc2c(-c3ccc(Cl)cc3Cl)cccc2c1-n1cnnc1
92 | 212 to 213 | Cc1cc(-c2nnc3c4ccccc4c(OCc4cnn(C)c4)nn23)no1
93 | 218 to 219 | Cc1nc2c(N)nc3ccccc3c2n1CCCCC(=O)N1CCOCC1
94 | 178 to 179 | COc1cc(-n2cnc3cc(-c4ccc(Cl)cc4)sc3c2=O)ccc1OC[C@H](O)C1CC1
95 | 209 to 210 | COc1ccc(Nc2ccc(-c3ccnc(Nc4cc(OC)c(OC)c(OC)c4)n3)cn2)cc1
96 | 243 to 244 | COc1cc(Nc2c(C#N)cnc3cc(-c4ccc5ccccc5c4)ccc23)c(Cl)cc1Cl
97 | 150 to 151 | CC(=O)OCc1ccc(Sc2ccccc2C(=O)O)c([N+](=O)[O-])c1
98 | 243 to 244 | COc1ccc(-c2cnn3c(N)c(-c4ccc(F)cc4)c(C)nc23)cc1
99 | 149 to 151 | COC(=O)c1c(Sc2nc(OC)cc(OC)n2)cccc1C(C)=O
100 | 92 to 93 | CCOC(=O)N1CCN(C2Cc3cc(Cl)ccc3Sc3ccccc32)CC1 (stereo not given)
